According to the supplement of paper PMC11061612:

Tests used:
Assay in all cases: Bliss excess, mean over the matrix (fraction); higher = more synergy
[1] = tested on: OVCAR-5 (Ovarian Carcinoma)
Outline: (§1)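 Bliss excess equals the observed combination effect minus the expected value EA + EB − EA·EB, where EA and EB are the effects of each agent alone. Combination Emax is the second-highest inhibition within the matrix. Inhibition was scaled from CellTiter-Glo 2.0 luminescence, with 0 set by vehicle wells and 1 by blank wells, after 72 hours of two-drug dosing of cells plated in 1536-well plates.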

[2] = tested on: CAL-33 (Oral Cavity Carcinoma)
Outline: as §1

[3] = tested on: ESS-1 (Other Solid Carcinomas)
Outline: as §1

[4] = tested on: LS-123 (Colorectal Carcinoma)
Outline: as §1

[5] = tested on: MHH-CALL-2 (B-Lymphoblastic Leukemia)
Outline: as §1

[6] = tested on: LOXIMVI (Melanoma)
Outline: as §1

[7] = tested on: NCI-H1568 (Lung Adenocarcinoma)
Outline: as §1

[8] = tested on: KYAE-1 (Esophageal Adenocarcinoma)
Outline: as §1

[9] = tested on: CAL-72 (Osteosarcoma)
Outline: as §1

[10] = tested on: LNZTA3WT4 (Low Grade Glioma)
Outline: as §1

[11] = tested on: HeLa (Cervical Carcinoma)
Outline: as §1

[12] = tested on: BE-13 (T-Lymphoblastic Leukemia)
Outline: as §1

[13] = tested on: KS-1 (Glioblastoma)
Outline: as §1

[14] = tested on: HuH-7 (Hepatocellular Carcinoma)
Outline: as §1

[15] = tested on: KMRC-20 (Kidney Carcinoma)
Outline: as §1

[16] = tested on: BE2-M17 (Neuroblastoma)
Outline: as §1

[17] = tested on: L-428 (Hodgkin's Lymphoma)
Outline: as §1

[18] = tested on: LCLC-97TM1 (Non-Small Cell Lung Carcinoma)
Outline: as §1

[19] = tested on: OV-56 (Ovarian Carcinoma)
Outline: as §1

[20] = tested on: NCI-H209 (Small Cell Lung Carcinoma)
Outline: as §1

## CC1(C)CCC(CN2CCN(c3ccc(C(=O)NS(=O)(=O)c4ccc(NCC5CCOCC5)c([N+](=O)[O-])c4)c(Oc4cnc5[nH]ccc5c4)c3)CC2)=C(c2ccc(Cl)cc2)C1 [Venetoclax] + C[C@@H](Nc1cc(F)cc(F)c1)c1cc(C(=O)N(C)C)cc2c(=O)cc(N3CCOCC3)oc12 [AZD8186] (first compound max 1 µM, 7x7, partner max 3 µM)
[1]
  Bliss excess: -0.0495
[2]
  Bliss excess: -0.0241
[3]
  Bliss excess: -0.0118
[4]
  Bliss excess: 0.0135
[5]
  Bliss excess: 0.0163
[6]
  Bliss excess: -0.0243
[7]
  Bliss excess: -0.0408
[8]
  Bliss excess: -0.0358
[9]
  Bliss excess: -0.0042
[10]
  Bliss excess: -0.0539
[11]
  Bliss excess: -0.0326
[12]
  Bliss excess: -0.0369
[13]
  Bliss excess: 0.0007
[14]
  Bliss excess: -0.0304
[15]
  Bliss excess: -0.0195
[16]
  Bliss excess: -0.0069
[17]
  Bliss excess: 0.0037
[18]
  Bliss excess: -0.0368
[19]
  Bliss excess: -0.0178
[20]
  Bliss excess: 0.1

## CC1(C)CCC(CN2CCN(c3ccc(C(=O)NS(=O)(=O)c4ccc(NCC5CCOCC5)c([N+](=O)[O-])c4)c(Oc4cnc5[nH]ccc5c4)c3)CC2)=C(c2ccc(Cl)cc2)C1 [Venetoclax] + Cc1cc2ncnn2cc1Nc1ncc2c(n1)n(C1CCOCC1)c(=O)n2C [AZD7648] (first compound max 1 µM, 7x7, partner max 10 µM)
[1]
  Bliss excess: -0.075
[2]
  Bliss excess: 0.0043
[3]
  Bliss excess: -0.0501
[4]
  Bliss excess: -0.0543
[5]
  Bliss excess: -0.0228
[6]
  Bliss excess: -0.0277
[7]
  Bliss excess: -0.0256
[8]
  Bliss excess: -0.0128
[9]
  Bliss excess: -0.0713
[10]
  Bliss excess: -0.0353
[11]
  Bliss excess: -0.0354
[12]
  Bliss excess: -0.0896
[13]
  Bliss excess: -0.0296
[14]
  Bliss excess: -0.022
[15]
  Bliss excess: 0.0019
[16]
  Bliss excess: 0.0002
[17]
  Bliss excess: -0.0548
[18]
  Bliss excess: -0.0144
[19]
  Bliss excess: 0.0016
[20]
  Bliss excess: 0.0416

## CC1(C)CCC(CN2CCN(c3ccc(C(=O)NS(=O)(=O)c4ccc(NCC5CCOCC5)c([N+](=O)[O-])c4)c(Oc4cnc5[nH]ccc5c4)c3)CC2)=C(c2ccc(Cl)cc2)C1 [Venetoclax] + CN(C)CCCOc1ccc(-c2ccc3ncc4c(c3c2)n(C2CCOCC2)c(=O)n4C)cn1 [AZD0156] (first compound max 1 µM, 7x7, partner max 1 µM)
[1]
  Bliss excess: -0.0195
[2]
  Bliss excess: -0.0064
[3]
  Bliss excess: -0.0515
[4]
  Bliss excess: -0.0169
[5]
  Bliss excess: 0.0128
[6]
  Bliss excess: 0.0539
[7]
  Bliss excess: -0.0166
[8]
  Bliss excess: -0.0166
[9]
  Bliss excess: -0.0002
[10]
  Bliss excess: -0.0469
[11]
  Bliss excess: -0.0178
[12]
  Bliss excess: 0.0084
[13]
  Bliss excess: -0.007
[14]
  Bliss excess: 0.0028
[15]
  Bliss excess: -0.0023
[16]
  Bliss excess: 0.0093
[17]
  Bliss excess: -0.0057
[18]
  Bliss excess: -0.0466
[19]
  Bliss excess: 0.0022
[20]
  Bliss excess: 0.0423

## CC(=O)Nc1cccc(-n2c(=O)n(C3CC3)c(=O)c3c(Nc4ccc(I)cc4F)n(C)c(=O)c(C)c32)c1 [Trametinib] + Cc1nc(-c2cn3c(n2)-c2ccc(-c4cnn(C(C)(C)C(N)=O)c4)cc2OCC3)n(C(C)C)n1 [Taselisib] (first compound max 1 µM, 7x7, partner max 10 µM)
[1]
  Bliss excess: 0.105
[2]
  Bliss excess: 0.104
[3]
  Bliss excess: 0.114
[4]
  Bliss excess: 0.0939
[5]
  Bliss excess: 0.188
[6]
  Bliss excess: 0.137
[7]
  Bliss excess: 0.131
[8]
  Bliss excess: 0.0462
[9]
  Bliss excess: -0.0264
[10]
  Bliss excess: 0.0829
[11]
  Bliss excess: 0.0483
[12]
  Bliss excess: -0.0123
[13]
  Bliss excess: 0.015
[14]
  Bliss excess: 0.0875
[15]
  Bliss excess: 0.0506
[16]
  Bliss excess: 0.107
[17]
  Bliss excess: -0.0045
[18]
  Bliss excess: 0.0752
[19]
  Bliss excess: -0.0025
[20]
  Bliss excess: -0.0014

## COc1nnc2ccc(N3CCC(c4ccc(OCCN5CCN(C)C(=O)[C@H]5C)cc4)CC3)nn12 [AZD5153] + Cc1c2c(nn1C)CSCc1cc(n(C)n1)CSc1cc(c3ccccc3c1)OCCCc1c(C(=O)O)n(C)c3c-2c(Cl)ccc13 [AZD5991] (first compound max 1 µM, 7x7, partner max 1 µM)
[1]
  Bliss excess: -0.043
[2]
  Bliss excess: 0.0009
[3]
  Bliss excess: 0.0032
[4]
  Bliss excess: -0.0249
[5]
  Bliss excess: 0.002
[6]
  Bliss excess: 0.0393
[7]
  Bliss excess: -0.0309
[8]
  Bliss excess: -0.0291
[9]
  Bliss excess: 0.0287
[10]
  Bliss excess: 0.0112
[11]
  Bliss excess: 0.0151
[12]
  Bliss excess: 0.0075
[13]
  Bliss excess: -0.0479
[14]
  Bliss excess: 0.0546
[15]
  Bliss excess: -0.0135
[16]
  Bliss excess: 0.0101
[17]
  Bliss excess: -0.023
[18]
  Bliss excess: -0.017
[19]
  Bliss excess: -0.0093
[20]
  Bliss excess: 0.0546

## CC(=O)c1c(C)c2cnc(Nc3ccc(N4CCNCC4)cn3)nc2n(C2CCCC2)c1=O [Palbociclib] + Cn1cnc2c(F)c(Nc3ccc(Br)cc3Cl)c(C(=O)NOCCO)cc21 [Selumetinib] (first compound max 10 µM, 7x7, partner max 10 µM)
[1]
  Bliss excess: -0.0041
[2]
  Bliss excess: 0.0345
[3]
  Bliss excess: -0.0097
[4]
  Bliss excess: 0.002
[5]
  Bliss excess: -0.0407
[6]
  Bliss excess: 0.0724
[7]
  Bliss excess: -0.109
[8]
  Bliss excess: -0.0125
[9]
  Bliss excess: 0.0683
[10]
  Bliss excess: -0.0459
[11]
  Bliss excess: -0.0499
[12]
  Bliss excess: -0.0003
[13]
  Bliss excess: -0.0012
[14]
  Bliss excess: -0.0584
[15]
  Bliss excess: -0.0534
[16]
  Bliss excess: -0.0339
[17]
  Bliss excess: -0.0083
[18]
  Bliss excess: 0.0728
[19]
  Bliss excess: -0.0587
[20]
  Bliss excess: -0.0528

## CC1(C)CCC(CN2CCN(c3ccc(C(=O)NS(=O)(=O)c4ccc(NCC5CCOCC5)c([N+](=O)[O-])c4)c(Oc4cnc5[nH]ccc5c4)c3)CC2)=C(c2ccc(Cl)cc2)C1 [Venetoclax] + C=CCn1c(=O)c2cnc(Nc3ccc(N4CCN(C)CC4)cc3)nc2n1-c1cccc(C(C)(C)O)n1 [AZD1775] (first compound max 1 µM, partner max 1 µM)
[1]
  Bliss excess: 0.0332
[2]
  Bliss excess: -0.0631
[3]
  Bliss excess: 0.0835
[4]
  Bliss excess: -0.0165
[5]
  Bliss excess: -0.0382
[6]
  Bliss excess: 0.0417
[7]
  Bliss excess: -0.0385
[8]
  Bliss excess: -0.033
[9]
  Bliss excess: 0.0256
[10]
  Bliss excess: 0.0509
[11]
  Bliss excess: -0.0459
[12]
  Bliss excess: 0.0227
[13]
  Bliss excess: 0.0134
[14]
  Bliss excess: -0.0247
[15]
  Bliss excess: -0.044
[16]
  Bliss excess: -0.0256
[17]
  Bliss excess: -0.0298
[18]
  Bliss excess: -0.0364
[19]
  Bliss excess: -0.0114
[20]
  Bliss excess: 0.107
